Source: patent US10752900B2, “Oligonucleotides for modulating gene expression and uses thereof” (BIOGENERA S.P.A., priority 2012, dated 2020)

Assays:
NIH-3T3 = assay: Cellular proliferation, NIH-3T3 fibroblastoid-type cells; assay type: cell-based; details: Table 1; cells that do not express MYCN
Procedure: Cell viability was assessed by means of an ATP-Lite assay (Luminescence ATP Detection Assay System, PerkinElmer) and is reported as the ratio between the average signal of the treated wells compared to the average value of the wells of untreated control cells. The cells were processed following the instructions provided with the kit.
Moreover, the oligonucleotides having SEQ ID NO 1-23 were administered in lines of fibroblastoid-type cells (NIH-3T3 and Phoenix) and the results are shown in Table 1 (last two columns). […]

MYCN gene = assay: QT-PCR, MYCN mRNA in WiT49 cells; assay type: cell-based, human; details: Table 6
Procedure: For the purpose of assessing the ability of the oligonucleotides of the present invention to modulate the expression of the target genes, their ability to reduce the quantity of messenger RNA was analyzed using the Real-Time PCR technique. For this purpose, use was made of 24-well plates, which were seeded with 5.0×10^4 cells with 0.3 ml of OPTI-MEM (GIBCO BRL) medium, 4% FBS and 2 mM L-glutammine (experiments in triplicate) per well. The cells were incubated for 24 hours at 37° C., in an atmosphere containing 5% CO2 to permit adherence to the base of the wells. For each well, the oligonucleotides were analyzed at the following final concentrations: • the antisense oligonucleotides siRNA and siRNA gapmer (i.e. the oligonucleotides containing one or more monomers of chemically modified nucleic acids at the 3' or 5' end, while in the central portion they have monomers of nucleic acids that have not been modified or have been modified at the level of the phosphodiester bond as a phosphorothioate bond) were used at 200 nM; • the antisense oligonucleotides containing phosphorothioate DNA monomers, the RNA antigene oligonucleotides (agRNA) and the oligonucleotides containing DNA monomers and LNA monomers were used at 10 μM; • the morpholino oligonucleotides were used at a concentration of 1 μM, and • the PNA oligonucleotides were administered at a concentration of 1 μM. The cells were treated with the oligonucleotides, adding FBS up to 4% 6 hours after administration of the same. After 24 hours the total RNA was extracted from each well and purified using the RNeasy Mini Kit (QIAGEN). Assays were performed on 8 cell lines obtained from 5 different human tumours which are correlated with MYCN expression, i.e.: • as a neuroblastoma model use was made of the cell lines Kelly, IMR-32 (where the MYCN gene is amplified and superexpressed) and SKNBE2c and LAN1 (where the MYCN gene is amplified and superexpressed and the p53 gene is mutated); • as a rabdomiosarcoma model use was made of the cell line RH30, where the MYCN gene is amplified and superexpressed; • as a Wilms' tumour model use was made of the cell line WiT49, where the MYCN gene is amplified and superexpressed; • as a retinoblastoma model use was made of the cell line Y79, where the MYCN gene is amplified and superexpressed; and • as a model of small cell lung cancer use was made of the cell line H69 where the MYCN gene is amplified and superexpressed. As a control, use was made of the same cell lines as listed above treated with sterile water instead of oligonucleotides. Each RNA sample was quantified (in duplicate) using a NanoDrop ND-1000 spectrophotometer (NanoDrop Technologies). The first strand of cDNA was produced using the cDNA Synthesis Kit for RT-PCR (Roche). For the cDNA synthesis reaction a total of 1 μg of RNA was used. For the real-time PCR, 10 ng of cDNA in a final volume of 20 μl was used with SYBR Green Master Mix 2× (Applied Biosystems) (3 identical experiments were conducted in triplicate). Two housekeeping genes were used as positive controls: GAPDH and beta-actin (ACTB). The conditions of the QT-PCR reaction were: 10 min at 95° C., 20 sec at 95° C., and 30 sec at 60° C., for 50 cycles. The PNAs having SEQ ID NO: 1-12 were also tested on different cell lines which overexpress MYCN (Kelly, SKNBE2c, RH30, […] 1 and H69). The results are shown in Table 6 and confirm the selectivity and specificity of the inhibition effect of the PNAs on the product of protein translation of the MYCN gene.

WiT49 = assay: Cellular proliferation assay (ATP-Lite), WiT49 cells; assay type: cell-based, human; details: Table 6
Procedure: For the purpose of assessing the gene modulation ability of the oligonucleotides of the present invention, the effect of their administration on cell viability was determined. For this purpose 5×10^3 cells per well were seeded into 96-well cell culture plates (experiments conducted in triplicate) with 100 μl of OPTI-MEM (GIBCO BRL) medium containing 4% FBS and 2 mM of L-glutammine. The PNA oligonucleotides were administered at different concentrations (1 μM-2.5 μM-5 μM-10 μM) in order to observe a dose-effect relationship. The viability of the treated cells was determined at 48, 72, 96 and 168 hours after treatment. Cell viability was assessed by means of an ATP-Lite assay (Luminescence ATP Detection Assay System, PerkinElmer) and is reported as the ratio between the average signal of the treated wells compared to the average value of the wells of untreated control cells. The cells were processed following the instructions provided with the kit. The assays were performed on the same cell lines used to determine the levels of the MYCN gene messenger and listed in the paragraph: Treatments with Oligonucleotides-QT-PCR. The PNAs having SEQ ID NO: 1-12 were also tested on different cell lines which overexpress MYCN (Kelly, SKNBE2c, RH30, […] 1 and H69). The results are shown in Table 6 and confirm the selectivity and specificity of the inhibition effect of the PNAs on the product of protein translation of the MYCN gene.

| Substance | NIH-3T3 prolif. (%) (NIH-3T3) | WiT49 % mRNA (MYCN gene) | WiT49 % cell prol. (WiT49) |
| --- | --- | --- | --- |
| SEQ ID NO: 1: PNA ATGCCGGGCATGATCT against MYCN; subject of patent EP 1618195, control sequence used for comparison (all peptide nucleic acid (PNA)) [reference compound] | 100% | 62% | 74% |
| SEQ ID NO: 2: PNA antigene oligonucleotide GGGTGGATGCGGGGGG directed against MYCN (PNA backbone, chemistry not fully specified) | 100% | 78% | 54% |
| SEQ ID NO: 3: PNA antigene oligonucleotide GATGCGGGGGGCTCCT directed against MYCN (PNA backbone, chemistry not fully specified) | 100% | 75% | 57% |
| SEQ ID NO: 4: PNA antigene oligonucleotide GTCGGCGGGAGGTAAG directed against MYCN (PNA backbone, chemistry not fully specified) | 100% | 73% | 60% |
| SEQ ID NO: 5: PNA antigene oligonucleotide GCTGGGTGGATGCGGG directed against MYCN (PNA backbone, chemistry not fully specified) | 100% | 69% | 63% |
| SEQ ID NO: 6: PNA antigene oligonucleotide TGGACGCGCTGGGTGG directed against MYCN (PNA backbone, chemistry not fully specified) | 100% | 68% | 65% |
| SEQ ID NO: 7: PNA antigene oligonucleotide CGCGCTGGGTGGATGC directed against MYCN (all peptide nucleic acid (PNA)) | 100% | 70% | 60% |
| SEQ ID NO: 8: PNA antigene oligonucleotide GTCTGGACGCGCTGGG directed against MYCN (all peptide nucleic acid (PNA)) | 100% | 72% | 62% |
| SEQ ID NO: 9: PNA antigene oligonucleotide CCCTGCAGTCGGCGGG directed against MYCN (all peptide nucleic acid (PNA)) | 100% | 66% | 68% |
| SEQ ID NO: 10: PNA antigene oligonucleotide CGGCCGCGGGCCGCCA directed against MYCN (PNA backbone, chemistry not fully specified) | 100% | 60% | 70% |
| SEQ ID NO: 11: PNA antigene oligonucleotide GGGAACTGTGTTGGAG directed against MYCN (PNA backbone, chemistry not fully specified) | 100% | 60% | 72% |
| SEQ ID NO: 12: PNA antigene oligonucleotide TGTCTGGACGCGCTGG directed against MYCN (all peptide nucleic acid (PNA)) | 100% | 62% | 73% |
